The values that follow are results of earlier work, collected in patent US9820994B2, “Cerclage pessary containing progesterone of prolonged, sustained, and continuous release useful for prevention of preterm birth” (Laboratorios Andromaco S.A., priority 2014, dated 2017).

In this series the test system is women at risk of preterm birth (short cervix / history of preterm birth).

As for `CC(=O)[C@H]1CC[C@H]2[C@@H]3CCC4=CC(=O)CC[C@]4(C)[C@H]3CC[C@]12C` [progesterone], under “250 mg IM weekly, 200 mg daily vaginal suppositories, 90 mg vaginal gel”, the “Reduction in rate of spontaneous preterm birth before 33-34 weeks” value is given as “approximately 40%”. Further, the “Rate of births before 34 weeks” value (vaginal progesterone group, singleton, previous preterm birth, cervical length less than 25 mm (Alfirevic et al., 2013)) is listed as around 30%. For the same compound, the “Reduction of the rate of spontaneous preterm birth before 33-34 weeks” value (vaginally administered, patients with short cervix) is reported as 40-45%.
